In patent publication US6552196B2, “Quinolone carboxylic acid derivatives” (Dong Wha Pharmaceutical Industrial Co., Ltd., priority 1997, dated 2003):
Values after ≈ are worked out from the molar mass of the structure shown.

Experiments:
Format in all cases: cell-based
[1] = system: Staphylococcus aureus 503; experiment: In vitro antibacterial activity (MIC), agar dilution; details: 2-fold agar dilution, Muller-Hinton agar, 18 hours at 37° C., read-out: minimum inhibitory concentration (MIC)
Protocol: (§1) 10^7 cfu/ml of bacteria were inoculated and cultured for 18 hours at 37° C. and then the antibacterial activities were measured. For the methicillin resistant strains the activities were measured after 48 hours of cultivation at 30° C. Hoechst Standard strains were used for the testings.

[2] = system: Esherichia coli 1507E; experiment: as above; details: 2-fold agar dilution, Muller-Hinton agar, 18 hours at 37° C., read-out: minimum inhibitory concentration (MIC)
Protocol: as §1

[3] = system: Klebsiella aerogenes 1522E; experiment: as above; details: 2-fold agar dilution, Muller-Hinton agar, 18 hours at 37° C., read-out: minimum inhibitory concentration (MIC)
Protocol: as §1

[4] = system: Esherichia coli DC0; experiment: as above; details: 2-fold agar dilution, Muller-Hinton agar, 18 hours at 37° C., read-out: minimum inhibitory concentration (MIC)
Protocol: as §1

[5] = system: Pseudomonas aeruginosa 1771; experiment: as above; details: 2-fold agar dilution, Muller-Hinton agar, 18 hours at 37° C., read-out: minimum inhibitory concentration (MIC)
Protocol: as §1

[6] = system: Enterobacter clocae 1321E; experiment: as above; details: 2-fold agar dilution, Muller-Hinton agar, 18 hours at 37° C., read-out: minimum inhibitory concentration (MIC)
Protocol: as §1

[7] = system: Klebsiella oxytoca 1082E; experiment: as above; details: 2-fold agar dilution, Muller-Hinton agar, 18 hours at 37° C., read-out: minimum inhibitory concentration (MIC)
Protocol: as §1

[8] = system: Pseudomonas aeruginosa 9027; experiment: as above; details: 2-fold agar dilution, Muller-Hinton agar, 18 hours at 37° C., read-out: minimum inhibitory concentration (MIC)
Protocol: as §1

[9] = system: Esherichia coli TEM; experiment: as above; details: 2-fold agar dilution, Muller-Hinton agar, 18 hours at 37° C., read-out: minimum inhibitory concentration (MIC)
Protocol: as §1

[10] = system: Streptococcus pyogens 308A; experiment: as above; details: 2-fold agar dilution, Muller-Hinton agar, 18 hours at 37° C., read-out: minimum inhibitory concentration (MIC)
Protocol: as §1

[11] = system: Esherichia coli 078; experiment: as above; details: 2-fold agar dilution, Muller-Hinton agar, 18 hours at 37° C., read-out: minimum inhibitory concentration (MIC)
Protocol: as §1

[12] = system: Streptococcus faecium MD 8b; experiment: as above; details: Enterococcus faecium, MD8B, 2-fold agar dilution, Muller-Hinton agar, 18 hours at 37° C., read-out: minimum inhibitory concentration (MIC)
Protocol: as §1

[13] = system: Pseudomonas aeruginosa 1771M; experiment: as above; details: Pseudomonas aeruginosa, 1771M, 18 h, read-out: minimum inhibitory concentration (MIC)
Protocol: as §1

[14] = system: Streptococcus pyogens 77A; experiment: as above; details: 2-fold agar dilution, Muller-Hinton agar, 18 hours at 37° C., read-out: minimum inhibitory concentration (MIC)
Protocol: as §1

[15] = system: Enterobacter clocae P99; experiment: as above; details: 2-fold agar dilution, Muller-Hinton agar, 18 hours at 37° C., read-out: minimum inhibitory concentration (MIC)
Protocol: as §1

[16] = system: Staphylococcus aureus 285; experiment: as above; details: 2-fold agar dilution, Muller-Hinton agar, 18 hours at 37° C., read-out: minimum inhibitory concentration (MIC)
Protocol: as §1

[17] = system: Pseudomonas aeruginosa 1592E; experiment: as above; details: 2-fold agar dilution, Muller-Hinton agar, 18 hours at 37° C., read-out: minimum inhibitory concentration (MIC)
Protocol: as §1

[18] = system: Salmonella typhimurium; experiment: as above; details: Salmonella enterica, 2-fold agar dilution, Muller-Hinton agar, 18 hours at 37° C., read-out: minimum inhibitory concentration (MIC)
Protocol: as §1

[19] = system: Staphylococcus aureus SG511; experiment: as above; details: 2-fold agar dilution, Muller-Hinton agar, 18 hours at 37° C., read-out: minimum inhibitory concentration (MIC)
Protocol: as §1

[20] = system: Staphylococcus aureus 695E; experiment: In vitro antibacterial activity against resistant strains (MIC); details: resistant strain Staphylococcus aureus 695E; 2-fold agar dilution; methicillin resistant strains 48 hours at 30° C.; read-out: minimum inhibitory concentration (MIC)
Protocol: as §1

[21] = system: Staphylococcus epidermidis 178; experiment: as above; details: resistant strain Staphylococcus epidermidis 178; 2-fold agar dilution; methicillin resistant strains 48 hours at 30° C.; read-out: minimum inhibitory concentration (MIC)
Protocol: as §1

[22] = system: Staphylococcus aureus 693E; experiment: as above; details: resistant strain Staphylococcus aureus 693E; 2-fold agar dilution; methicillin resistant strains 48 hours at 30° C.; read-out: minimum inhibitory concentration (MIC)
Protocol: as §1

[23] = system: Staphylococcus aureus 703E; experiment: as above; details: resistant strain Staphylococcus aureus 703E; 2-fold agar dilution; methicillin resistant strains 48 hours at 30° C.; read-out: minimum inhibitory concentration (MIC)
Protocol: as §1

[24] = system: Staphylococcus aureus 241; experiment: as above; details: resistant strain Staphylococcus aureus 241; 2-fold agar dilution; methicillin resistant strains 48 hours at 30° C.; read-out: minimum inhibitory concentration (MIC)
Protocol: as §1

[25] = system: Staphylococcus aureus 179; experiment: as above; details: resistant strain Staphylococcus aureus 179; 2-fold agar dilution; methicillin resistant strains 48 hours at 30° C.; read-out: minimum inhibitory concentration (MIC)
Protocol: as §1

[26] = system: Staphylococcus aureus 293; experiment: as above; details: resistant strain Staphylococcus aureus 293; 2-fold agar dilution; methicillin resistant strains 48 hours at 30° C.; read-out: minimum inhibitory concentration (MIC)
Protocol: as §1

[27] = system: Staphylococcus aureus 692E; experiment: as above; details: resistant strain Staphylococcus aureus 692E; 2-fold agar dilution; methicillin resistant strains 48 hours at 30° C.; read-out: minimum inhibitory concentration (MIC)
Protocol: as §1

[28] = system: Staphylococcus aureus 8236; experiment: as above; details: resistant strain Staphylococcus aureus 8236; 2-fold agar dilution; methicillin resistant strains 48 hours at 30° C.; read-out: minimum inhibitory concentration (MIC)
Protocol: as §1

[29] = system: Staphylococcus aureus 256E; experiment: as above; details: resistant strain Staphylococcus aureus 256E; 2-fold agar dilution; methicillin resistant strains 48 hours at 30° C.; read-out: minimum inhibitory concentration (MIC)
Protocol: as §1

[30] = system: Staphylococcus aureus 121E; experiment: as above; details: resistant strain Staphylococcus aureus 121E; 2-fold agar dilution; methicillin resistant strains 48 hours at 30° C.; read-out: minimum inhibitory concentration (MIC)
Protocol: as §1

[31] = system: Staphylococcus aureus 697E; experiment: as above; details: resistant strain Staphylococcus aureus 697E; 2-fold agar dilution; methicillin resistant strains 48 hours at 30° C.; read-out: minimum inhibitory concentration (MIC)
Protocol: as §1

[32] = system: Staphylococcus aureus 208E; experiment: as above; details: resistant strain Staphylococcus aureus 208E; 2-fold agar dilution; methicillin resistant strains 48 hours at 30° C.; read-out: minimum inhibitory concentration (MIC)
Protocol: as §1

[33] = system: Staphylococcus aureus 303; experiment: as above; details: resistant strain Staphylococcus aureus 303; 2-fold agar dilution; methicillin resistant strains 48 hours at 30° C.; read-out: minimum inhibitory concentration (MIC)
Protocol: as §1

[34] = system: Staphylococcus aureus 701E; experiment: as above; details: resistant strain Staphylococcus aureus 701E; 2-fold agar dilution; methicillin resistant strains 48 hours at 30° C.; read-out: minimum inhibitory concentration (MIC)
Protocol: as §1

[35] = system: Staphylococcus aureus 694E; experiment: as above; details: resistant strain Staphylococcus aureus 694E; 2-fold agar dilution; methicillin resistant strains 48 hours at 30° C.; read-out: minimum inhibitory concentration (MIC)
Protocol: as §1

[36] = system: Staphylococcus aureus 88E; experiment: as above; details: resistant strain Staphylococcus aureus 88E; 2-fold agar dilution; methicillin resistant strains 48 hours at 30° C.; read-out: minimum inhibitory concentration (MIC)
Protocol: as §1

[37] = system: Staphylococcus epidermidis 291; experiment: as above; details: resistant strain Staphylococcus epidermidis 291; 2-fold agar dilution; methicillin resistant strains 48 hours at 30° C.; read-out: minimum inhibitory concentration (MIC)
Protocol: as §1

[38] = system: Staphylococcus aureus 690E; experiment: as above; details: resistant strain Staphylococcus aureus 690E; 2-fold agar dilution; methicillin resistant strains 48 hours at 30° C.; read-out: minimum inhibitory concentration (MIC)
Protocol: as §1

SMILES | MIC [1] [µg/mL] | MIC [2] [µg/mL] | MIC [3] [µg/mL] | MIC [4] [µg/mL] | MIC [5] [µg/mL] | MIC [6] [µg/mL] | MIC [7] [µg/mL] | MIC [8] [µg/mL] | MIC [9] [µg/mL] | MIC [10] [µg/mL] | MIC [11] [µg/mL] | MIC [12] [µg/mL] | MIC [13] [µg/mL] | MIC [14] [µg/mL] | MIC [15] [µg/mL] | MIC [16] [µg/mL] | MIC [17] [µg/mL] | MIC [18] [µg/mL] | MIC [19] [µg/mL] | MIC [20] [µg/mL] | also measured
CON=C1CN(c2c(F)c(N)c3c(=O)c(C(=O)O)cn(C4CC4)c3c2F)CC12CN(C)C2 [Example 11, 1-Cyclopropyl-5-amino-6,8-difluoro-7-[8-(methoxyimino)-2-methyl-2,6-diazaspiro[3,4]oct-6-yl]-4-oxo-1,4-dihydro-3-quinolinecarboxylic acid] | 0.004 (≈ 0.00894 µM) | 0.013 (≈ 0.0291 µM) | 0.049 (≈ 0.11 µM) | 0.098 (≈ 0.219 µM) | 0.781 (≈ 1.75 µM) | 0.004 (≈ 0.00894 µM) | < 0.002 | 0.781 (≈ 1.75 µM) | 0.013 (≈ 0.0291 µM) | 0.013 (≈ 0.0291 µM) | < 0.002 | 0.049 (≈ 0.11 µM) | 0.391 (≈ 0.874 µM) | 0.004 (≈ 0.00894 µM) | 0.013 (≈ 0.0291 µM) | 0.007 (≈ 0.0156 µM) | 0.781 (≈ 1.75 µM) | 0.007 (≈ 0.0156 µM) | < 0.002 | 0.013 (≈ 0.0291 µM) | MIC [21]: 0.781 µg/mL (≈ 1.75 µM); MIC [22]: 0.013 µg/mL (≈ 0.0291 µM); MIC [23]: 0.013 µg/mL (≈ 0.0291 µM); MIC [24]: 0.195 µg/mL (≈ 0.436 µM); MIC [25]: 0.195 µg/mL (≈ 0.436 µM); MIC [26]: 0.195 µg/mL (≈ 0.436 µM); MIC [27]: 0.007 µg/mL (≈ 0.0156 µM); MIC [28]: 0.195 µg/mL (≈ 0.436 µM); MIC [29]: 0.007 µg/mL (≈ 0.0156 µM); MIC [30]: 0.013 µg/mL (≈ 0.0291 µM); MIC [31]: 0.004 µg/mL (≈ 0.00894 µM); MIC [32]: 0.013 µg/mL (≈ 0.0291 µM); MIC [33]: 0.195 µg/mL (≈ 0.436 µM); MIC [34]: 0.013 µg/mL (≈ 0.0291 µM); MIC [35]: 0.013 µg/mL (≈ 0.0291 µM); MIC [36]: 0.007 µg/mL (≈ 0.0156 µM); MIC [37]: 0.781 µg/mL (≈ 1.75 µM); MIC [38]: 0.007 µg/mL (≈ 0.0156 µM)
C[C@@H]1CN(c2c(F)c(N)c3c(=O)c(C(=O)O)cn(C4CC4)c3c2F)C[C@H](C)N1 [Sparfloxacin, sparfloxacin, reference compound] | 0.049 (≈ 0.125 µM) | 0.025 (≈ 0.0637 µM) | 0.025 (≈ 0.0637 µM) | 0.195 (≈ 0.497 µM) | 0.781 (≈ 1.99 µM) | 0.004 (≈ 0.0102 µM) | < 0.002 | 0.781 (≈ 1.99 µM) | 0.013 (≈ 0.0331 µM) | 0.391 (≈ 0.996 µM) | 0.004 (≈ 0.0102 µM) | 0.391 (≈ 0.996 µM) | 0.195 (≈ 0.497 µM) | 0.195 (≈ 0.497 µM) | 0.007 (≈ 0.0178 µM) | 0.049 (≈ 0.125 µM) | 0.781 (≈ 1.99 µM) | 0.007 (≈ 0.0178 µM) | 0.098 (≈ 0.25 µM) | 0.049 (≈ 0.125 µM) | MIC [21]: 6.25 µg/mL (≈ 15.9 µM); MIC [22]: 0.049 µg/mL (≈ 0.125 µM); MIC [23]: 0.098 µg/mL (≈ 0.25 µM); MIC [24]: 6.25 µg/mL (≈ 15.9 µM); MIC [25]: 6.25 µg/mL (≈ 15.9 µM); MIC [26]: 6.25 µg/mL (≈ 15.9 µM); MIC [27]: 0.049 µg/mL (≈ 0.125 µM); MIC [28]: 6.25 µg/mL (≈ 15.9 µM); MIC [29]: 0.098 µg/mL (≈ 0.25 µM); MIC [30]: 0.098 µg/mL (≈ 0.25 µM); MIC [31]: 0.049 µg/mL (≈ 0.125 µM); MIC [32]: 0.098 µg/mL (≈ 0.25 µM); MIC [33]: 3.12 µg/mL (≈ 7.96 µM); MIC [34]: 0.098 µg/mL (≈ 0.25 µM); MIC [35]: 0.098 µg/mL (≈ 0.25 µM); MIC [36]: 0.098 µg/mL (≈ 0.25 µM); MIC [37]: 6.25 µg/mL (≈ 15.9 µM); MIC [38]: 0.049 µg/mL (≈ 0.125 µM)
